Measurements taken from PubChem BioAssay (NCI).
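Cultured in 96-well plates, cells were exposed to test compound for 48 hours across five concentrations. TGI: concentration producing complete growth inhibition.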

What was measured:
Assay in all cases: DTP human tumour cell line panel, 48 h
[1] = system: SNB-78 CNS
[2] = system: NCI-H23 lung
[3] = system: MALME-3M melanoma
[4] = system: HT29 colon
[5] = system: HCC-2998 colon
[6] = system: COLO 205 colon
[7] = system: LXFL 529 NSCLC
[8] = system: KM12 colon
[9] = system: SF-295 CNS
[10] = system: OVCAR-4 ovarian
[11] = system: HCT-15 colon
[12] = system: SF-539 CNS
[13] = system: LOX IMVI melanoma
[14] = system: OVCAR-3 ovarian
[15] = system: RPMI-8226 leukemia
[16] = system: A498 renal
[17] = system: OVCAR-8 ovarian
[18] = system: M19-MEL melanoma
[19] = system: A549 NSCLC
[20] = system: IGROV1 ovarian
[21] = system: DMS 273 small cell lung
[22] = system: TK-10 renal
[23] = system: K-562 leukemia
[24] = system: CCRF-CEM leukemia
[25] = system: DMS 114 small cell lung
[26] = system: DLD-1 colon
[27] = system: U251 CNS
[28] = system: SW-620 colon
[29] = system: SN12C renal
[30] = system: SK-OV-3 ovarian
[31] = system: SR leukemia
[32] = system: SK-MEL-5 melanoma
[33] = system: RXF 393 renal
[34] = system: ACHN renal
[35] = system: SF-268 CNS
[36] = system: UACC-62 melanoma
[37] = system: XF 498 CNS
[38] = system: M14 melanoma
[39] = system: SNB-75 CNS
[40] = system: EKVX NSCLC
[41] = system: MOLT-4 leukemia
[42] = system: NCI-H460 lung
[43] = system: SK-MEL-28 melanoma
[44] = system: 786-0 renal
[45] = system: KM20L2 colon
[46] = system: NCI-H226 lung
[47] = system: HOP-92 NSCLC
[48] = system: HOP-62 NSCLC
[49] = system: SNB-19 CNS
[50] = system: NCI-H522 lung
[51] = system: OVCAR-5 ovarian
[52] = system: UO-31 renal
[53] = system: HL-60(TB) leukemia
[54] = system: CAKI-1 renal
[55] = system: UACC-257 melanoma
[56] = system: HCT-116 colon
[57] = system: SK-MEL-2 melanoma

Measured: TGI

O=C1C2c3[nH]c4ccccc4c3C3CCCC3C2C(=O)N1c1ccccc1 (configuration not stated)
not listed: [45] | [46] | [47] | [48] | [49] | [50] | [51] | [52] | [53] | [54] | [55] | [56] | [57]
> 100 µM: all other assays above

COc1ccc(C2C(Cl)C(=O)N2NC(=O)c2ccc(N)cc2)cc1 (configuration not stated)
not listed: [31] | [33] | [35]
> 100 µM: all other assays above

O=C1NC2C(=O)N(Cc3ccccc3)C(=O)C2N1 (configuration not stated)
not listed: [17] | [21] | [57]
> 100 µM: all other assays above
